Assays:
[1] = target: T1, AR (AR-full length) in LNCaP cells (Homo sapiens, UniProt P10275, T878A); experiment: LNCaP Androgen Receptor Imaging Assay (immunofluorescence of endogenous nuclear AR); assay type: cell-based; conditions: 24 h incubation; for DC50: concentration giving 50% of maximum degradation of AR per curve fit, single experiment or average of two or more; for LNCaP AR Degradation Dmax / Dmax: maximum degradation observed, normalized as % of positive control (prior art AR PROTAC at 3 μM); for Dmax: LNCaP
T1 construct: the prostate cancer cell line LNCaP (expressing AR-full length); endogenous in cells; host or cells: LNCaP
In short: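 Endogenous nuclear AR level was imaged by immunofluorescence after 24 h compound exposure (12-point dose response, 0.3% DMSO, 37° C./5% CO2) in LNCaP cells. Data were expressed as % of a 3 μM prior-art AR PROTAC control and fitted (bell fit where a hook appeared) to give DC50 and maximum degradation Dmax.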

[2] = target: T2, AR (L702H) in LNCaP cells (Homo sapiens, UniProt P10275, L702H/T878A); experiment: LNCaP Androgen Receptor L702H Imaging Assay (LNCaP cells engineered by CRISPR/Cas9); assay type: cell-based; conditions: LNCaP cells with AR L702H mutation, 24 h incubation; for DC50: concentration giving 50% of maximum degradation of AR (L702H) per curve fit; for LNCaP AR (L702H) Degradation Dmax / Dmax: maximum degradation observed, normalized as % of positive control; for Dmax: LNCaP
T2 construct: engineered to introduce the mutation L702H into the AR gene using CRISPR/Cas9; endogenous in cells; host or cells: LNCaP cells edited by CRISPR/Cas9 at the AR gene
In short: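 AR (L702H) degradation, expressed as DC50 and Dmax from curve fits normalized to a positive degrader control, was measured by high-content imaging of anti-AR immunofluorescence. The engineered LNCaP line was dosed over 12 concentrations for 24 h, 0.3% DMSO final, before PFA fixation.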

T1 sequence (P10275 whole entry T878A): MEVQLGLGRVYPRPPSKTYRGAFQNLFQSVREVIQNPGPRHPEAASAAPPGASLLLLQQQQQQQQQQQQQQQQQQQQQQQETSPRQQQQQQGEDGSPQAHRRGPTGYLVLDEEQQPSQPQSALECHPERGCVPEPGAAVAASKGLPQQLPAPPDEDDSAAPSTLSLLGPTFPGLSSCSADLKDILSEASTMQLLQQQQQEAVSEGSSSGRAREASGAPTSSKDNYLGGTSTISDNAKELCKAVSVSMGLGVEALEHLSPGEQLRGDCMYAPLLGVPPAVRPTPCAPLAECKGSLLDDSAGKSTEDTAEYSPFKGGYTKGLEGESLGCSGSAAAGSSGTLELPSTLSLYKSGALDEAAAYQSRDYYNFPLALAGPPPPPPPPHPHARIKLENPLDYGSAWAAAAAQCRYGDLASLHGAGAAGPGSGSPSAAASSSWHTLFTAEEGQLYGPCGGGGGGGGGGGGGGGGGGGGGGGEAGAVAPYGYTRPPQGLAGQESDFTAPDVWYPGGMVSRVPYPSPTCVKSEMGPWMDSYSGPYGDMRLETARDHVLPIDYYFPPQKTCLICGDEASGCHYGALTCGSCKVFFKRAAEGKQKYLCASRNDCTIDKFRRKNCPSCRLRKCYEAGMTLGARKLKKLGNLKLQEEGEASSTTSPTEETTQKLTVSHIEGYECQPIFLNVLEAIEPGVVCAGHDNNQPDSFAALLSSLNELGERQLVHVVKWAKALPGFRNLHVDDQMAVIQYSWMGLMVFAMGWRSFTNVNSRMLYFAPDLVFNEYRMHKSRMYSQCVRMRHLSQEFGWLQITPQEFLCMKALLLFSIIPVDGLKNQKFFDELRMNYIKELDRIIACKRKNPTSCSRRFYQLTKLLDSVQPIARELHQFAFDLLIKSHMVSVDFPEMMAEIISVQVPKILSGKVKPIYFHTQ
T1 sequence (Q96SW2 whole entry partner): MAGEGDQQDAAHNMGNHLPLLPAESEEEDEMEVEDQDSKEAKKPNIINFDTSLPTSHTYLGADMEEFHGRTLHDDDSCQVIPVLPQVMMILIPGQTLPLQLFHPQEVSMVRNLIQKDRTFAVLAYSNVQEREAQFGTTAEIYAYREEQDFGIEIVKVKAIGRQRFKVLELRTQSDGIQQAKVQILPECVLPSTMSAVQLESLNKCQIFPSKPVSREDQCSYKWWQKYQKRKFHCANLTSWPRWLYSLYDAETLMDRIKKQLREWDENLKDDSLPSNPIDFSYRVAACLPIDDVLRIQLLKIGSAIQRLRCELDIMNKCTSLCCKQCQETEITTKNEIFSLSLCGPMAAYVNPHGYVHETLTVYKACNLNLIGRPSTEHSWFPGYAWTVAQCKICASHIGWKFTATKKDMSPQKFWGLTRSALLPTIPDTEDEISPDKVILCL
T2 sequence (P10275 whole entry L702H/T878A): as the sequence (P10275 whole entry T878A) above, with L702H counted along it
T2 sequence (Q96SW2 whole entry partner): as the sequence (Q96SW2 whole entry partner) above

Compound	DC50 [1]	LNCaP AR Degradation Dmax [1]	DC50 [2]	LNCaP AR (L702H) Degradation Dmax [2]	Dmax [1]	Dmax [2]
N#Cc1c[nH]c2c(N3CCCC(c4ccc(N5CCC(CN6CCC(n7ccc8c(N9CCC(=O)NC9=O)cccc87)CC6)CC5)nn4)C3)ccc(Cl)c12 (single isomer, unassigned) [Example 122, 4-Chloro-7-[(3S*)-3-{6-[4-({4-[4-(2,4-dioxo-1,3-diazinan-1-yl)-1H-indol-1-yl]piperidin-1-yl}methyl)piperidin-1-yl]pyridazin-3-yl}piperidin-1-yl]-1H-indole-3-carbonitrile]	93 nM	85%	67 nM	75%	–	–
Cc1ccc(N2CCC(c3ccc(OCCCCN4CCN(c5ccc6c(c5)CN(C5CCC(=O)NC5=O)C6=O)CC4)cc3)C2)c2[nH]cc(C#N)c12 (single isomer, unassigned) [Example 150, 7-{(3S*)-3-[4-(4-{4-[2-(2,6-Dioxopiperidin-3-yl)-1-oxo-2,3-dihydro-1H-isoindol-5-yl]piperazin-1-yl}butoxy)phenyl]pyrrolidin-1-yl}-4-methyl-1H-indole-3-carbonitrile]	14 nM	–	893 nM	–	82%	50%
Cc1ccc(N2CCC(c3ccc(OCCCCN4CCN(c5ccc6c(c5)CN(C5CCC(=O)NC5=O)C6=O)CC4)cc3)C2)c2[nH]cc(C#N)c12 (single isomer, unassigned) [Example 151, 7-{(3R*)-3-[4-(4-{4-[2-(2,6-Dioxopiperidin-3-yl)-1-oxo-2,3-dihydro-1H-isoindol-5-yl]piperazin-1-yl}butoxy)phenyl]pyrrolidin-1-yl}-4-methyl-1H-indole-3-carbonitrile]	18 nM	67%	497 nM	42%	–	–
N#Cc1c[nH]c2c(N3CCCC(NC(=O)c4ccc(N5CCC(CN6CCN(c7ccc8c(c7)CN(C7CCC(=O)NC7=O)C8=O)CC6)CC5)cn4)C3)ccc(Cl)c12 (single isomer, unassigned) [Example 180, N-[(3R*)-1-(4-Chloro-3-cyano-1H-indol-7-yl)piperidin-3-yl]-5-[4-({4-[2-(2,6-dioxopiperidin-3-yl)-1-oxo-2,3-dihydro-1H-isoindol-5-yl]piperazin-1-yl}methyl)piperidin-1-yl]pyridine-2-carboxamide]	3 nM	–	2 nM	–	94%	88%
N#Cc1c[nH]c2c(N3CCCC(NC(=O)c4ccc(N5CCC(CN6CCN(c7ccc8c(c7)CN(C7CCC(=O)NC7=O)C8=O)CC6)CC5)cn4)C3)ccc(Cl)c12 (single isomer, unassigned) [Example 181, N-[(3S*)-1-(4-Chloro-3-cyano-1H-indol-7-yl)piperidin-3-yl]-5-[4-({4-[2-(2,6-dioxopiperidin-3-yl)-1-oxo-2,3-dihydro-1H-isoindol-5-yl]piperazin-1-yl}methyl)piperidin-1-yl]pyridine-2-carboxamide]	4 nM	95%	9 nM	95%	–	–
N#Cc1c[nH]c2c(N3CCC(c4ccc(N5CCC(CN6CCN(c7ccc8c(c7)CN(C7CCC(=O)NC7=O)C8=O)CC6)CC5)cc4)CC3)ccc(Cl)c12 (centres unmarked) [Example 1, 4-Chloro-7-(4-{4-[4-({4-[2-(2,6-dioxopiperidin-3-yl)-1-oxo-2,3-dihydro-1H-isoindol-5-yl]piperazin-1-yl}methyl)piperidin-1-yl]phenyl}piperidin-1-yl)-1H-indole-3-carbonitrile]	6 nM	–	6 nM	–	99%	100%
N#Cc1c[nH]c2c(N3CCC(c4ccc(N5CCC(CN6CCN(c7ccc8c(c7)CN(C7CCC(=O)NC7=O)C8=O)CC6)CC5)cc4)CC3)ccc(F)c12 (centres unmarked) [Example 2, 7-(4-{4-[4-({4-[2-(2,6-Dioxopiperidin-3-yl)-1-oxo-2,3-dihydro-1H-isoindol-5-yl]piperazin-1-yl}methyl)piperidin-1-yl]phenyl}piperidin-1-yl)-4-fluoro-1H-indole-3-carbonitrile]	6 nM	–	5 nM	–	96%	101%
N#Cc1c[nH]c2c(N3CCC(c4ccc(N5CCC(CN6CCC(n7ccc8c(N9CCC(=O)NC9=O)cccc87)CC6)CC5)cc4)CC3)ccc(Cl)c12 [Example 5, 4-Chloro-7-(4-{4-[4-({4-[4-(2,4-dioxo-1,3-diazinan-1-yl)-1H-indol-1-yl]piperidin-1-yl}methyl)piperidin-1-yl]phenyl}piperidin-1-yl)-1H-indole-3-carbonitrile]	8 nM	–	12 nM	–	103%	110%
N#Cc1c[nH]c2c(N3CCC(c4ccc(N5CCC(CN6CCC(n7ccc8c(N9CCC(=O)NC9=O)cccc87)CC6)CC5)cc4)CC3)ccc(F)c12 [Example 6, 7-(4-{4-[4-({4-[4-(2,4-Dioxo-1,3-diazinan-1-yl)-1H-indol-1-yl]piperidin-1-yl}methyl)piperidin-1-yl]phenyl}piperidin-1-yl)-4-fluoro-1H-indole-3-carbonitrile]	10 nM	–	13 nM	–	100%	103%
COc1cc(N2CCN(CC3CCN(c4ccc(C5CCN(c6ccc(Cl)c7c(C#N)c[nH]c67)CC5)cc4)CC3)CC2)cc2c1C(=O)N(C1CCC(=O)NC1=O)C2 (centres unmarked) [Example 7, 4-Chloro-7-(4-{4-[4-({4-[2-(2,6-dioxopiperidin-3-yl)-7-methoxy-1-oxo-2,3-dihydro-1H-isoindol-5-yl]piperazin-1-yl}methyl)piperidin-1-yl]phenyl}piperidin-1-yl)-1H-indole-3-carbonitrile]	9 nM	–	14 nM	–	98%	101%
Cc1ccc(N2CCC(c3ccc(N4CCC(CN5CCC(n6ccc7c(N8CCC(=O)NC8=O)cccc76)CC5)CC4)cc3)CC2)c2[nH]cc(C#N)c12 [Example 8, 7-(4-{4-[4-({4-[4-(2,4-Dioxo-1,3-diazinan-1-yl)-1H-indol-1-yl]piperidin-1-yl}methyl)piperidin-1-yl]phenyl}piperidin-1-yl)-4-methyl-1H-indole-3-carbonitrile]	29 nM	–	103 nM	–	99%	96%
N#Cc1n[nH]c2c(N3CCC[C@@H](c4ccc(N5CCC(CN6CCC(n7ccc8c(N9CCC(=O)NC9=O)cccc87)CC6)CC5)cc4)C3)ccc(Cl)c12 [Example 9]	7 nM	–	9 nM	–	105%	106%
N#Cc1n[nH]c2c(N3CCC[C@@H](c4ccc(N5CCC(CN6CCN(c7ccc8c(c7)CN(C7CCC(=O)NC7=O)C8=O)CC6)CC5)cc4)C3)ccc(Cl)c12 (stereo partly drawn) [Example 10, 4-Chloro-7-[(3S)-3-{4-[4-({4-[2-(2,6-dioxopiperidin-3-yl)-1-oxo-2,3-dihydro-1H-isoindol-5-yl]piperazin-1-yl}methyl)piperidin-1-yl]phenyl}piperidin-1-yl]-1H-indazole-3-carbonitrile]	7 nM	–	5 nM	–	96%	103%
N#Cc1c[nH]c2c(N3CCC[C@@H](c4ccc(N5CCC(CN6CCC(n7ccc8c(N9CCC(=O)NC9=O)cccc87)CC6)CC5)cc4)C3)ccc(Cl)c12 [Example 11]	9 nM	–	18 nM	–	102%	105%
N#Cc1c[nH]c2c(N3CCC[C@@H](c4ccc(N5CCC(CN6CCN(c7ccc8c(c7)CN(C7CCC(=O)NC7=O)C8=O)CC6)CC5)cc4)C3)ccc(Cl)c12 (stereo partly drawn) [Example 12, 4-Chloro-7-[(3S)-3-{4-[4-({4-[2-(2,6-dioxopiperidin-3-yl)-1-oxo-2,3-dihydro-1H-isoindol-5-yl]piperazin-1-yl}methyl)piperidin-1-yl]phenyl}piperidin-1-yl]-1H-indole-3-carbonitrile]	6 nM	–	12 nM	–	95%	97%
Cn1c(C2CCN(CC3CCN(c4ccc([C@@H]5CCCN(c6ccc(Cl)c7c(C#N)c[nH]c67)C5)cc4)CC3)CC2)cc2ccc(N3CCC(=O)NC3=O)cc21 [Example 13, 4-Chloro-7-[(3S)-3-{4-[4-({4-[6-(2,4-dioxo-1,3-diazinan-1-yl)-1-methyl-1H-indol-2-yl]piperidin-1-yl}methyl)piperidin-1-yl]phenyl}piperidin-1-yl]-1H-indole-3-carbonitrile]	7 nM	–	6 nM	–	107%	109%
Cn1c(C2CCN(CC3CCN(c4ccc([C@@H]5CCCN(c6ccc(Cl)c7c(C#N)n[nH]c67)C5)cc4)CC3)CC2)cc2ccc(N3CCC(=O)NC3=O)cc21 [Example 14, 4-Chloro-7-[(3S)-3-{4-[4-({4-[6-(2,4-dioxo-1,3-diazinan-1-yl)-1-methyl-1H-indol-2-yl]piperidin-1-yl}methyl)piperidin-1-yl]phenyl}piperidin-1-yl]-1H-indazole-3-carbonitrile]	6 nM	–	9 nM	–	107%	112%

Source: patent US20260274832A1, “COMPOUNDS AND THEIR USE IN TREATING CANCER” (ASTRAZENECA AB, priority 2023, published 2026)
